Laboratory results from US8741944B2, “Anti-infective agents against intracellular pathogens” (priority 2007, dated 2014).

Tests used:
[1] = tested on: PC-3 cells; assay: Apoptosis analysis in PC-3 cells (DNA fragmentation ELISA, PARP cleavage); format: cell-based, human; conditions: 1% FBS-containing medium
Procedure: Apoptosis analysis Two methods were used to assess drug-induced apoptotic cell death: detection of DNA fragmentation by the Cell Death Detection ELISA kit (Roche Diagnostics. Mannheim, Germany) and Western blot analysis of poly-(ADP-ribose)polymerase (PARP) cleavage. […] In brief, 4×10^5 PC-3 cells were cultured in a T-25 flask for 24 h before treatment. Cells were treated with the DMSO vehicle or the test agent at the indicated concentrations for 6-24 h, collected, and cell lysates equivalent to 2×10^3 PC-3 cells were used in the ELISA. For the PARP cleavage assay, drug-treated cells were collected 4-8 h post-treatment, washed with ice-cold PBS, and resuspended in lysis buffer containing 20 mM Tris-HCl, pH 8, 137 mM NaCl, 1 mM CaCl2, 10% glycerol, 1% Nonidet P-40, 0.5% deoxycholate, 0.1% SDS, 100 μM 4-(2-aminoethyl)benzenesulfonyl fluoride, leupeptin at 10 μg/mL, and aprotinin at 10 μg/mL. Soluble cell lysates were collected after centrifugation at 10,000 g for 5 min. Equivalent amounts of proteins (60-100 μg) from each lysate were resolved in 8% SDS-polyacrylamide gels. Bands were transferred to nitrocellulose membranes, and analyzed by immunoblotting with anti-PARP antibody.

[2] = tested on: PC-3 cells; assay: Cell viability analysis, MTT assay in PC-3 cells; format: cell-based, human; conditions: inducing apoptotic death in PC-3 cells / PC-3 cell viability; read-out: IC50 PC-3
Procedure: Cell Culture PC-3 (p53−/−) human androgen-non-responsive prostate cancer cells were purchased from the American […] (Manassas, Va.). Cells were cultured in RPMI 1640 medium (Gibco, Grand Island, N.Y.) supplemented with 10% fetal bovine serum (FBS; Gibco) at 37° C. in a humidified incubator containing 5% CO2.
Controls received DMSO vehicle at a concentration equal to that in drug-treated cells. The medium was removed, replaced by 200 μl of 0.5 mg/ml of MTT in 10% FBS-containing RPMI-1640 medium, and cells were incubated in the CO2 incubator at 37° C. for 2 h. Supernatants were removed from the wells, and the reduced MTT dye was solubilized in 200 μL/well DMSO. Absorbance at 570 nm was determined on a plate reader.

[3] = tested on: Akt; assay: Direct inhibition of immunoprecipitated Akt kinase activity; format: biochemical, human
[4] = tested on: phospho-Akt; assay: Western blot analysis of Akt and phospho-Akt in PC-3 cells; format: cell-based, human; conditions: even at 1 μM
Procedure: Immunoblotting. The general procedure for the Western blot analysis of Akt and phospho-Akt is described as follows. Cells were washed in PBS, resuspended in SDS sample buffer sonicated by an ultrasonic sonicator for 5 see, and boiled for 5 min. After brief centrifugation, equivalent protein concentrations from the soluble fractions were resolved in 10% SDS-polyacrylamide gels on a Minigel apparatus, and transferred to a nitrocellulose membrane using a semi-dry transfer cell. The transblotted membrane was washed three times with TBS containing 0.05% Tween 20 (TBST). After blocking with TBST containing 5% nonfat milk for 60 min., the membrane was incubated with the primary antibody at 1:1,000 dilution in TBST-5% low fat milk at 4° C. for 12 h, and was then washed three times with TBST. The membrane was probed with goat anti-rabbit IgG-HRP conjugates (1:1,000) for 1 h at room temperature, and was washed with TBST three times. The immunoblots were visualized by enhanced chemiluminescence.

[5] = tested on: SR (Leukemia); assay: NCI DTP tumor cell line screen (SRB), SR
Procedure: (§1) For a typical screening experiment, cells are inoculated into 96 well microtiter plates in 100 μL at plating densities ranging from 5,000 to 40,000 cells/well depending on the doubling time of individual cell lines. After cell inoculation, the microtiter plates are incubated at 37° C., 5% CO2, 95% air and 100% relative humidity for 24 h prior to addition of experimental drugs.
(§2) After 24 h, two plates of each cell line are fixed in situ with TCA, to represent a measurement of the cell population for each cell line at the time of drug addition (Tz). Experimental drugs are solubilized in dimethyl sulfoxide at 400-fold the desired final maximum test concentration and stored frozen prior to use. At the time of drug addition, an aliquot of frozen concentrate is thawed and diluted to twice the desired final maximum test concentration with complete medium containing 50 μg/ml gentamicin. Additional four, 10-fold or ½ log serial dilutions are made to provide a total of five drug concentrations plus control. Aliquots of 100 μl of these different drug dilutions are added to the appropriate microtiter wells already containing 100 μl of medium, resulting in the required final drug concentrations.
(§3) Following drug addition, the plates are incubated for an additional 48 h at 37° C., 5% CO2, 95% air, and 100% relative humidity. For adherent cells, the assay is terminated by the addition of cold TCA. Cells are fixed in situ by the gentle addition of 50 μl of cold 50% (w/v) TCA (final concentration, 10% TCA) and incubated for 60 minutes at 4° C. The supernatant is discarded, and the plates are washed five times with tap water and air dried. Sulforhodamine B (SRB) solution (1001) at 0.4% (w/v) in 1% acetic acid is added to each well, and plates are incubated for 10 minutes at room temperature. After staining, unbound dye is removed by washing five times with 1% acetic acid and the plates are air dried. Bound stain is subsequently solubilized with 10 mM trizma base, and the absorbance is read on an automated plate reader at a wavelength of 515 nm. For suspension cells, the methodology is the same except that the assay is terminated by fixing settled cells at the bottom of the wells by gently adding 50 μl of 80% TCA (final concentration, 16% TCA). Using the seven absorbance measurements [time zero, (Tz), control growth, (C), and test growth in the presence of drug at the five concentration levels (Ti)], the percentage growth is calculated at each of the drug concentrations levels. Percentage growth inhibition is calculated as: [(Ti−Tz)/(C−Tz)]×100 for concentrations for which Ti>/=Tz [(Ti−Tz)/Tz]×100 for concentrations for which Ti<Tz
(§4) Three dose response parameters are calculated for each experimental agent. […] The drug concentration resulting in total growth inhibition (TGI) is calculated from Ti=Tz. […] Values are calculated for each of these three parameters if the level of activity is reached; however, if the effect is not reached or is exceeded, the value for that parameter is expressed as greater or less than the maximum or minimum concentration tested.

[6] = target: COX-2 (Homo sapiens (Human), UniProt P35354); assay: COX-2 inhibitory activity; format: biochemical; conditions: concentrations up to 50 μM
Chain of COX-2 (P35354 whole entry, looked up): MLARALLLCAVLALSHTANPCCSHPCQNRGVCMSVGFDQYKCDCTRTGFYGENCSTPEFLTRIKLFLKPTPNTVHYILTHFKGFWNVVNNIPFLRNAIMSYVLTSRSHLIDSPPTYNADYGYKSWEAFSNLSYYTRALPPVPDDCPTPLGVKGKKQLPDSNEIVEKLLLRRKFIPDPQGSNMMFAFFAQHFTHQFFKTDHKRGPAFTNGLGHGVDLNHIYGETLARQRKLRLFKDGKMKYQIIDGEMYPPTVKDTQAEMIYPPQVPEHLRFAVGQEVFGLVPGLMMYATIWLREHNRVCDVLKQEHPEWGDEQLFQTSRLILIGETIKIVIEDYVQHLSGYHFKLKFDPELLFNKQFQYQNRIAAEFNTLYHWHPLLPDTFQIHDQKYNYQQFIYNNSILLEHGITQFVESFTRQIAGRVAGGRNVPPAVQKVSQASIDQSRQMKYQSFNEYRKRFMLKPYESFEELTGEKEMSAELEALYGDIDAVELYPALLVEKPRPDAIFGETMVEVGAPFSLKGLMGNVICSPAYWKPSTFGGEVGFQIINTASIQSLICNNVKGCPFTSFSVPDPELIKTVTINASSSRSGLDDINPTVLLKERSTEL

[7] = tested on: U251 (CNS Cancer); assay: NCI DTP tumor cell line screen (SRB), U251
Procedure: as §1, §2, §3, §4

[8] = tested on: SF-268 (CNS Cancer); assay: NCI DTP tumor cell line screen (SRB), SF-268
Procedure: as §1, §2, §3, §4

[9] = tested on: SF-295 (CNS Cancer); assay: NCI DTP tumor cell line screen (SRB), SF-295
Procedure: as §1, §2, §3, §4

[10] = tested on: SNB-19 (CNS Cancer); assay: NCI DTP tumor cell line screen (SRB), SNB-19
Procedure: as §1, §2, §3, §4

[11] = tested on: BT-549 (Breast Cancer); assay: NCI DTP tumor cell line screen (SRB), BT-549
Procedure: as §1, §2, §3, §4

Compound: 4-[5-(2-Phenanthrenyl)-3-(trifluoromethyl)-1H-pyrazol-1-yl]-phenyl -guanidine [Compound 71]
- apoptotic death in PC-3 cells (DNA fragmentation and PARP cleavage) [1]: induced apoptotic death
- IC50 [2]: 3 µM
- direct inhibitory effect on immunoprecipitated Akt kinase activity [3]: no appreciable direct inhibition
- phospho-Akt level [4]: substantial decrease
- GI50 [5]: 0.0386 µM
- TGI [5]: 3.79E−07
- Percent Growth ([5]; Log10 Concentration −4.0): −21%
- Percent Growth ([5]; Log10 Concentration −5.0): −36%
- Percent Growth ([5]; Log10 Concentration −6.0): −30%
- Percent Growth ([5]; Log10 Concentration −7.0): 42%
- Percent Growth ([5]; Log10 Concentration −8.0): 62%
- COX-2 inhibitory activity [6]: nor was any measurable COX-2 inhibitory activity detected

Compound: NCC(=O)Nc1ccc(-n2nc(C(F)(F)F)cc2-c2ccc3c(ccc4ccccc43)c2)cc1 [Compound 70, 2-Amino-N-{4-[5-(2-phenanthrenyl)-3-(trifluoromethyl)-1H-pyrazol-1-yl]-phenyl}-acetamide]
- TGI [7]: 2.64E−06
- Mean Optical Densities ([7]; Log10 Concentration −4.0): 0.320
- Mean Optical Densities ([7]; Log10 Concentration −5.0): 0.144
- Percent Growth ([7]; Log10 Concentration −5.0): −63%
- Mean Optical Densities ([7]; Log10 Concentration −6.0): 0.810
- Percent Growth ([7]; Log10 Concentration −6.0): 46%
- Mean Optical Densities ([7]; Log10 Concentration −7.0): 1.139
- Percent Growth ([7]; Log10 Concentration −7.0): 82%
- Mean Optical Densities ([7]; Log10 Concentration −8.0): 1.298
- Percent Growth ([7]; Log10 Concentration −8.0): 100%
- TGI [8]: 4.16E−06
- Mean Optical Densities ([8]; Log10 Concentration −4.0): 0.280
- Mean Optical Densities ([8]; Log10 Concentration −5.0): 0.252
- Percent Growth ([8]; Log10 Concentration −5.0): −33%
- Mean Optical Densities ([8]; Log10 Concentration −6.0): 0.789
- Percent Growth ([8]; Log10 Concentration −6.0): 54%
- Mean Optical Densities ([8]; Log10 Concentration −7.0): 0.930
- Percent Growth ([8]; Log10 Concentration −7.0): 72%
- Mean Optical Densities ([8]; Log10 Concentration −8.0): 1.016
- Percent Growth ([8]; Log10 Concentration −8.0): 84%
- TGI [9]: 3.71E−06
- Mean Optical Densities ([9]; Log10 Concentration −4.0): 0.287
- Mean Optical Densities ([9]; Log10 Concentration −5.0): 0.225
- Percent Growth ([9]; Log10 Concentration −5.0): −47%
- Mean Optical Densities ([9]; Log10 Concentration −6.0): 0.915
- Percent Growth ([9]; Log10 Concentration −6.0): 62%
- Mean Optical Densities ([9]; Log10 Concentration −7.0): 1.190
- Percent Growth ([9]; Log10 Concentration −7.0): 96%
- Mean Optical Densities ([9]; Log10 Concentration −8.0): 1.173
- Percent Growth ([9]; Log10 Concentration −8.0): 94%
- TGI [10]: 3.15E−06
- Mean Optical Densities ([10]; Log10 Concentration −4.0): 0.324
- Mean Optical Densities ([10]; Log10 Concentration −5.0): 0.219
- Percent Growth ([10]; Log10 Concentration −5.0): −59%
- Mean Optical Densities ([10]; Log10 Concentration −6.0): 1.230
- Percent Growth ([10]; Log10 Concentration −6.0): 59%
- Mean Optical Densities ([10]; Log10 Concentration −7.0): 1.655
- Percent Growth ([10]; Log10 Concentration −7.0): 94%
- Mean Optical Densities ([10]; Log10 Concentration −8.0): 1.562
- Percent Growth ([10]; Log10 Concentration −8.0): 87%
- TGI [5]: 4.17E−06
- Mean Optical Densities ([5]; Log10 Concentration −4.0): 0.363
- Mean Optical Densities ([5]; Log10 Concentration −5.0): 0.265
- Percent Growth ([5]; Log10 Concentration −5.0): −27%
- Mean Optical Densities ([5]; Log10 Concentration −6.0): 0.605
- Percent Growth ([5]; Log10 Concentration −6.0): 45%
- Mean Optical Densities ([5]; Log10 Concentration −7.0): 0.796
- Percent Growth ([5]; Log10 Concentration −7.0): 80%
- Mean Optical Densities ([5]; Log10 Concentration −8.0): 0.816
- Percent Growth ([5]; Log10 Concentration −8.0): 84%
- TGI [11]: 2.95E−06
- Mean Optical Densities ([11]; Log10 Concentration −5.0): 0.143
- Percent Growth ([11]; Log10 Concentration −5.0): −71%
- Mean Optical Densities ([11]; Log10 Concentration −6.0): 0.785
- Percent Growth ([11]; Log10 Concentration −6.0): 63%
- Mean Optical Densities ([11]; Log10 Concentration −7.0): 0.891
- Percent Growth ([11]; Log10 Concentration −7.0): 86%
- Mean Optical Densities ([11]; Log10 Concentration −8.0): 0.912
- Percent Growth ([11]; Log10 Concentration −8.0): 90%
